Data on three compounds can be found in patent US5530157A, “Anti-inflammatory benzoic acid derivatives” (Scios Nova Inc., priority 1995, dated 1996).

Holding throughout (assay type): cell-based
The test system of assay [1] is neutrophils. The assay is described as follows: Superoxide production by PMN, fMLP. The note with it: Homo sapiens, Neutrophil; fMLP 300 nM, TNF preincubation; read-out: IC50 to inhibit superoxide production, fMLP/O2. An excerpt:
(§1) Several in vitro assays were employed to determine the ability of compounds of the invention to function as anti-inflammatory agents. One group of assays measured the ability of the compounds to inhibit adherence of polymorphonuclear neutrophils to serum coated wells (in the presence of either TNF-α or PAF) or to human umbilical vein endothelial cells (in the presence of INF-γ). Another group of assays measured the ability of the compounds to inhibit the release of elastase or superoxide from activated neutrophils. These assays were performed in the following manner.
(§2) Superoxide production. Superoxide production by PMN was measured as the superoxide dismutase (SOD)-inhibitable reduction of ferricytochrome c. […] Therefore, subsequent experiments were performed in the presence of cytochrome c only. In all cases, experiments were carried out in 96 well plates. Before the addition of cells, plates were coated by incubating each well with 200 μl of 10% human serum for 1 h in 37° C. Plates were then washed several times with PBS containing 10 mM CaCl2 and MgCl2. Neutrophils, resuspended in Hank's balanced salt solution (HBSS) to a final concentration of 4×10^6 cells/ml, were preincubated with TNF (10 ng/ml) for 10 min at 37° C. in the presence of cytochrome c (75 μm). Experiments were then performed with 100 μl of this cell suspension added to each well, followed by the addition of 10 μl of an aqueous dilution of test compound (50 nm-[…]). Immediately after the addition of test compound, a 10 μl aliquot of activators (fMLP, 300 nM; PAF, 20 nM; C5a, 5 μg/ml) was added to each well. Plates were immediately transferred to a preheated Thermomax kinetic microplate reader and the change in absorbance at […] was recorded over a 3 min period.

In assay [2] the test system is human umbilical vein endothelial cells. The experiment in a line: INF-γ HUVEC assay: adherence of PMN to human umbilical vein endothelial cells. The settings on record: HUVECs with INF-γ 1 unit/mL 20 hrs, PMN activated with 50 ng/mL TNF, read-out: IC50 to inhibit adhesion, IFN-γ HUVECS.
From the text: as §1
(§3) Isolation of PMN: Blood was drawn into syringes containing heparin (1 U/mL), from human volunteers (free of any medication for at least 48 hrs). 30 mL of blood was layered over a gradient of 10 mL 1.077 g/mL Histpaque (Sigma, St. Louis, Mo.), and centrifuged at room temperature, 400×g for 20 min. All subsequent manipulations were carried out at room temperature, with endotoxin free reagents, and using polypropylene pipettes and tubes, to prevent activation of the PMN. The pinkish PMN layer immediately above the RBC was collected and washed 2× with Hank's buffered salt solution with calcium and magnesium, 0.2% glucose, and 10 mM HEPES, pH 7.2 (HBSS++) by centrifugation at 400×g for 10 min. Pellets were suspended in 8 mL 0.9% NaCl, and RBC lysed by the addition of 24 mL water for 40 sec, followed by the addition of 8 mL of 3.6% NaCl. After centrifugation at 200×g for 8 min, RBC ghosts were aspirated from the top of the PMN pellet, and cells washed with HBSS++. PMN adherence to protein substrates: 96 well tissue culture plates were coated with 10% pooled human serum (North American Biological,;, Miami, Fla.) in phosphate buffered saline (PBS) for 1 hr at 37° C., followed by washing 3× with PBS. Test compounds were prepared in DMSO as 100× stocks. PMN (4×10^6 /mL) were preincubated with test compounds for 10 min at 37° C. in serum-coated wells. Tumor necrosis factor (TNF-α) was added to 3 nM or platelet aggregation facor (PAF) to 1 μM, and adherence was carried out for 20 or 10 min, respectively. Nonadherent cells were aspirated, and wells washed two times with warm PBS with calcium and magnesium, with blotting of the inverted plate following each aspiration. Adherent PMN were quantitated using a BCA protein assay (Pierce, Rockford, Ill.).
INF-γHUVEC Assay. Primary human umbilical vein endothelial cells (HUVECs) from Clonetics Corp. (San Diego, Calif.) were seeded at 20,000 cells per wall in a 96 well tissue culture plate that was coated with fibronectin, for 45 min and then twice rinsed with phosphate buffered saline. To the culture media (M199, 80%; FBS, 20%; […] endothelial cell growth factor (Maciag et all, Proc. Natl. Acad. Sci. USA (1979) 76(11):5674-5678), 0.1 mg/mL heparin; 5% CO2; 37° C.) was added INF-γ (R&D Systems) at 1 unit/mL for 20 hrs. Isolated PMNs were loaded with the fluorescent dye BCECF AM (Molecular Probes) by incubating 1×10^7 cells/mL in HBSS with 4 μM dye for 30 min at 37° C. The PMNs were incubated with test compound for 10 min at 37° C., then activated with 50 ng/mL TNF and immediately added to the HUVECs which had been rinsed twice with HBSS+1% human serum. The co-culture plate was incubated at 37° C. for 20 min followed by gentle washing (twice) with HBSS+1% human serum. The extent of adherence was assessed by measuring the amount of fluorescence (485-535 nm filter) in each well with a fluorescence plate reader (Idexx).

Assay [3] deals with neutrophils. The experiment in a line: Superoxide production by PMN, PAF. The settings on record: Homo sapiens, Neutrophil; PAF 20 nM, TNF preincubation; read-out: IC50 to inhibit superoxide production, PAF/O2.
From the text: as §1, §2

The test system of assay [4] is polymorphonuclear neutrophils. The assay is described as follows: Adherence of PMN to serum coated wells, TNF-α. The note with it: Homo sapiens, Polymorphonuclear neutrophil, 20 min, TNF-α 3 nM, read-out: IC50 to inhibit adhesion, TNF-α serum.
From the text: as §1, §3

Turning to `O=C(O)c1ccc(/C=C/c2ccccc2-c2ccccc2)cc1` [NPC 18730, 4-[2-(biphenyl)-E-ethenyl]benzoic acid], the IC50 in assay [1] was found to be 340 nM; in assay [2], 25700 nM; in assay [3], 3000 nM; in assay [4], 2900 nM.

Regarding `O=C(O)c1ccc(C=Cc2ccccc2Oc2ccccc2)cc1` [NPC 18801, 2'-phenoxy-4-stilbenecarboxylic acid], the IC50 in assay [1] came to 150 nM; in assay [2], 52400 nM; in assay [3] it was 520 nM; in assay [4], 6900 nM.

Regarding `O=C(O)c1ccc(/C=C/c2ccccc2-c2ccc(Cl)c(Cl)c2)cc1` [NPC 18818, 4-{2-[2-(3,4-dichlorophenyl)phenyl]-(E)-ethenyl] benzoic acid], the IC50 in assay [1] worked out at 150 nM; in assay [2] it was 30000 nM; in assay [3], 300 nM; in assay [4], 1800 nM.
